Measured values taken from publication PMC12203525, “The insight into the biology of five homologous lectins produced by the entomopathogenic bacterium and nematode symbiont Photorhabdus laumondii” (Glycobiology, 2025).

Legend:
PLL4 [1] = molecular target: T1, PLL4 (Photorhabdus laumondii subsp. laumondii, UniProt Q7N8I6); assay: SPR, apparent KD on immobilized sugar; set-up: species or system Photorhabdus laumondii subsp. laumondii TT01; details: PLL4 binding to the immobilized sugar, 25 °C, read-out: KD(app)
Procedure: (§1) SPR experiments were carried out on BIAcore T200 or BIAcore S200 instruments (GE Healthcare, UK). Sugar moieties were immobilized on the chip surface using the standard procedures according to the manufacturer’s instructions. Measurements with immobilized MGMR were performed on the chip prepared previously (high-density chip) ([Fujdiarová et al. 2021]). Measurements with immobilized α-L-fucose were performed on the streptavidin chip (GE Healthcare, UK). Biotinylated α-L-fucose was immobilized on channel 2 to yield a final response of 29 RU, unmodified channel 1 was used as a control.
(§2) Measurements were performed in Tris buffer with the addition of 0.05% Tween 20 at a flow rate of 30 μl/min at 25 °C. […] 50 mM NaOH for 30 s (flow 30 μl/min) was used for chip regeneration. To determine KDs (app) towards MGMR, 2-fold dilution series of lectins was used (PLL: 0.048 – 50 μM, PLL4: 0.008 - 2 μM; PLL5: 1.9 – 500 nM). The data were evaluated with the BIAcore T200 or BIAcore S200 evaluation software using a steady state approach. To determine KD(app) towards α-L-fucose, 2-fold dilution series of lectins was used (PLL: 1.25 – 20 μM, PLL4: 0.39 – 12.5 μM; PLL5: 0.12 – 30 μM). The data were evaluated with the BIAcore T200 or BIAcore S200 evaluation software using a steady state approach (PLL5) or a single-cycle kinetics approach (PLL, PLL4). For SPR inhibition experiments on the MGMR channel, 250 nM PLL, 250 nM PLL4 or 62 nM PLL5, respectively, was used. Proteins of the given concentration were mixed with a concentration series of tested inhibitors (0.01 - 0.4 M). Proteins without an inhibitor were used as a control. The response of the lectin bound to the sugar surface at equilibrium was plotted against the concentration of inhibitor in order to determine IC50. The response in the appropriate blank channel was subtracted prior to all evaluations.

PLL = PLL (Photorhabdus laumondii subsp. laumondii, UniProt Q7N8J0); assay: SPR, apparent KD on immobilized sugar; set-up: species or system Photorhabdus laumondii subsp. laumondii TT01; details: PLL binding to the immobilized sugar, 25 °C, read-out: KD(app)
Procedure: as §1, §2

PLL5 = PLL5 (Photorhabdus laumondii subsp. laumondii, UniProt Q7N8I5); assay: SPR, apparent KD on immobilized sugar; set-up: species or system Photorhabdus laumondii subsp. laumondii TT01; details: PLL5 binding to the immobilized sugar, 25 °C, read-out: KD(app)
Procedure: as §1, §2

PLL2 = molecular target: PLL2; set-up: method as in Faltinek et al. 2019; Fujdiarová et al. 2021; details: PLL2 binding to the immobilized sugar, SPR; ref Faltinek et al. 2019; Fujdiarová et al. 2021; read-out: KD(app); cited from earlier work
PLL3 = molecular target: PLL3; set-up: method as in Faltinek et al. 2019; Fujdiarová et al. 2021; details: PLL3 binding to the immobilized sugar, SPR; ref Faltinek et al. 2019; Fujdiarová et al. 2021; read-out: KD(app); cited from earlier work
PLL4 [2] = molecular target: T1, PLL4; assay: Glycan microarray screening (634 saccharide ligands); type: binding, Photorhabdus laumondii subsp. laumondii TT01; details: DyLight488-labelled PLL4, 200 μg/mL
Procedure: Lectins were fluorescently labelled with DyLight 488 according to the manufacturer’s instructions and the unbound dye was extensively dialyzed out of the protein solution. The microarray chip (Semiotik LLC, Moscow, Russia, batch OSPS280715) containing 634 saccharide ligands, each in 6 replicates, was treated with PBS (137 mM NaCl, 2.7 mM KCl, 8 mM Na2HPO4, […], pH 7.4) with added 0.1% Tween-20 for 15 min. The labelled proteins (200 μg/mL) were then separately applied to the chip surface and incubated in a humidity chamber at 37 °C for 1 h. After the incubation, the unbound protein was washed out with PBS containing 0.05% Tween-20 and deionized water. The chip was dried by airflow and scanned using an InnoScan1100 AL (Innopsys, Carbonne, France) with a 488 nm laser. The data were analyzed with the software Mapix 8.2.2 and an online glycan chip converter (Semiotic, https://rakitko.shinyapps.io/semiotik).

T1 sequence (Q7N8I6 entry or part of it): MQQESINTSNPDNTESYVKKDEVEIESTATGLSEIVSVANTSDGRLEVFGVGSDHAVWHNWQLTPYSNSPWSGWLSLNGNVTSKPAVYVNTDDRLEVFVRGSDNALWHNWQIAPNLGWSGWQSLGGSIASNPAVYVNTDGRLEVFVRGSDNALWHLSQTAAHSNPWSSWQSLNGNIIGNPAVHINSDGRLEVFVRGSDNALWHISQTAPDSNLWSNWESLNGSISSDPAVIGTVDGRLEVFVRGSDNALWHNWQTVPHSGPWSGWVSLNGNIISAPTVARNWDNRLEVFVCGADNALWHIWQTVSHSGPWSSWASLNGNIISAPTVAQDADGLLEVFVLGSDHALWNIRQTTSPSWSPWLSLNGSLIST
Sequence of PLL (Q7N8J0 entry or part of it): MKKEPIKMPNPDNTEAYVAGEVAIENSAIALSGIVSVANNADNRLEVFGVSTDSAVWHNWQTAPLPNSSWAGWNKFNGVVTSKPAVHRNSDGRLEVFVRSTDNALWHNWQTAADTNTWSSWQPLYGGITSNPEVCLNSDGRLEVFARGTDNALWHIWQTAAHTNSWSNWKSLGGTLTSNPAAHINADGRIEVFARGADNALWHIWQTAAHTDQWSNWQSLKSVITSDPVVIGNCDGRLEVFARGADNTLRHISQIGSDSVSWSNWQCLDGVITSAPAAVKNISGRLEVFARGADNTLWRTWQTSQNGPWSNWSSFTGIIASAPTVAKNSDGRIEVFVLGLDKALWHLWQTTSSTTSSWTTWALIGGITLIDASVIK
Sequence of PLL5 (Q7N8I5 entry or part of it): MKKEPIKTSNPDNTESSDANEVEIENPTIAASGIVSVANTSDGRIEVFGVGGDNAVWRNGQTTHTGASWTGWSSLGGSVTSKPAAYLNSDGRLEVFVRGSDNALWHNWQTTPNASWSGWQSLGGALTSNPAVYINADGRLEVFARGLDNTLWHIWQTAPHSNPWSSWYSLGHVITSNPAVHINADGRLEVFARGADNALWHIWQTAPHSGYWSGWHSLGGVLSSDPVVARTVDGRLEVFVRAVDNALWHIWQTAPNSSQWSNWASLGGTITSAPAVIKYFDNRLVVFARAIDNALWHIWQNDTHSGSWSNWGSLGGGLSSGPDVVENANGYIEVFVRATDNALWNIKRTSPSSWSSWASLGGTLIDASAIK

Compound	Kd (PLL4 [1]) [µM]	Kd (PLL) [µM]	Kd (PLL5) [µM]	Kd (PLL2) [µM]	Kd (PLL3) [µM]	glycan array binding (in words) (PLL4 [2])
COC[C@H]1O[C@@H](O[C@@H]2[C@@H](OC)[C@@H](OC)[C@H](O)O[C@H]2C)[C@H](O)[C@@H](OC)[C@@H]1O [MGMR, 3,6-O-Me2-D-Glcβ1-4(2,3-O-Me2)-L-Rhaα]	0.8 ± 0.06	44 ± 4.6	0.3 ± 0.03	0.0061 ± 0.0002	607 ± 46	
α-L-fucoside	4.3 ± 0.1	8.5 ± 0.2	64 ± 8.6	117 ± 4.8	322 ± 86	recognized
